# Experimental data: ChEMBL document CHEMBL5137127, “Astramalabaricosides A-T, Highly Oxygenated Malabaricane Triterpenoids with Migratory Inhibitory Activity from Astragalus membranaceus var. mongholicus” (J Nat Prod, 2022)
# The source made the active and inactive calls. The rule behind the calls is not given here.
# Tested on: HepG2
# Experiment: Antimigratory activity against human HepG2 cells assessed as inhibition of cell migration at 100 uM measured upto 24 hrs by inverted microscopy based scratch wound healing assay
# Format: functional
row,Compound,Activity
1,CC(=O)N[C@H]1[C@H](O[C@H]2[C@H](O[C@H]3[C@H](O[C@H]4CC[C@]5(C)[C@H]6C[C@@H](O)[C@@H]([C@](C)(O)CC/C=C(\C)C[C@@H]7OC(=O)O[C@H]7[C@](C)(O)CO)[C@]6(C)CC[C@H]5C4(C)C)O[C@H](CO[C@@H]4OC[C@@H](O)[C@H](O)[C@H]4O)[C@@H](O)[C@@H]3O)O[C@@H](C)[C@H](O)[C@H]2O)O[C@H](CO)[C@@H](O)[C@@H]1O[C@@H]1OC[C@H](O)[C@H](O)[C@H]1O,Active
2,C/C(=C\CC[C@@](C)(O)[C@@H]1[C@H](O)C[C@H]2[C@@]1(C)CC[C@H]1C(C)(C)[C@@H](O[C@@H]3O[C@H](CO[C@@H]4OC[C@@H](O)[C@H](O)[C@H]4O)[C@@H](O)[C@H](O)[C@H]3O[C@@H]3O[C@@H](C)[C@H](O)[C@@H](O)[C@H]3O)CC[C@]21C)C[C@H](O)[C@@H](O)[C@@](C)(O)CO[C@@H]1O[C@H](CO)[C@@H](O)[C@H](O)[C@H]1O,Active
3,CC(=O)N[C@H]1[C@H](O[C@H]2[C@H](O[C@H]3[C@H](O[C@H]4CC[C@]5(C)[C@H]6C[C@@H](O)[C@@H]([C@](C)(O)CC/C=C(\C)C[C@H](O)[C@H](O)C(C)(C)O)[C@]6(C)CC[C@H]5C4(C)C)O[C@H](CO[C@@H]4OC[C@@H](O)[C@H](O)[C@H]4O)[C@@H](O)[C@@H]3O)O[C@@H](C)[C@H](O)[C@H]2O)O[C@H](CO)[C@@H](O)[C@@H]1O[C@@H]1OC[C@H](O)[C@H](O)[C@H]1O,Active
4,CC(=O)N[C@H]1[C@H](O[C@H]2[C@H](O[C@H]3[C@H](O[C@H]4CC[C@]5(C)[C@H]6C[C@@H](O)[C@@H]([C@](C)(O)CC/C=C(\C)C[C@H](O)[C@H](O)C(C)(C)O)[C@]6(C)CC[C@H]5C4(C)C)O[C@H](CO)[C@@H](O)[C@@H]3O)O[C@@H](C)[C@H](O)[C@H]2O)O[C@H](CO)[C@@H](O)[C@@H]1O,Active
5,CC(=O)N[C@H]1[C@H](O[C@H]2[C@H](O[C@H]3[C@H](O[C@H]4CC[C@]5(C)[C@H]6C[C@@H](O)[C@@H]([C@](C)(O)CC/C=C(\C)C[C@@H]7OC(=O)O[C@H]7[C@](C)(O)CO[C@@H]7O[C@H](CO)[C@@H](O)[C@H](O)[C@H]7O)[C@]6(C)CC[C@H]5C4(C)C)O[C@H](CO[C@@H]4OC[C@@H](O)[C@H](O)[C@H]4O)[C@@H](O)[C@@H]3O)O[C@@H](C)[C@H](O)[C@H]2O)O[C@H](CO)[C@@H](O)[C@@H]1O,Active
6,CC(=O)N[C@H]1[C@H](O[C@H]2[C@H](O[C@H]3[C@H](O[C@H]4CC[C@]5(C)[C@H]6C[C@@H](O)[C@@H]([C@](C)(O)CC/C=C(\C)C[C@H](O)[C@@H](O)[C@@](C)(O)CO)[C@]6(C)CC[C@H]5C4(C)C)O[C@H](CO[C@@H]4OC[C@@H](O)[C@H](O)[C@H]4O)[C@@H](O)[C@@H]3O)O[C@@H](C)[C@H](O)[C@H]2O)O[C@H](CO)[C@@H](O)[C@@H]1O[C@@H]1OC[C@H](O)[C@H](O)[C@H]1O,Active
7,C/C(=C\CC[C@@](C)(O)[C@@H]1[C@H](O)C[C@H]2[C@@]1(C)CC[C@H]1C(C)(C)[C@@H](O[C@@H]3O[C@H](CO[C@@H]4OC[C@@H](O)[C@H](O)[C@H]4O)[C@@H](O)[C@H](O)[C@H]3O[C@@H]3O[C@@H](C)[C@H](O)[C@@H](O)[C@H]3O)CC[C@]21C)C[C@H](O)[C@@H](O)[C@@](C)(O)CO,Active
8,CC(=O)N[C@H]1[C@H](O[C@H]2[C@H](O[C@H]3[C@H](O[C@H]4CC[C@]5(C)[C@H]6C[C@@H](O)[C@@H]([C@](C)(O)CC/C=C(\C)C[C@H](O)[C@H](O)C(C)(C)O)[C@]6(C)CC[C@H]5C4(C)C)O[C@H](CO[C@@H]4OC[C@@H](O)[C@H](O)[C@H]4O)[C@@H](O)[C@@H]3O)O[C@@H](C)[C@H](O)[C@H]2O)O[C@H](CO)[C@@H](O)[C@@H]1O,Active
9,CC(=O)N[C@H]1[C@H](O[C@H]2[C@H](O[C@H]3[C@H](O[C@H]4CC[C@]5(C)[C@H]6C[C@@H](O)[C@@H]([C@](C)(O)CC/C=C(\C)C[C@@H]7OC(=O)O[C@H]7C(C)(C)O)[C@]6(C)CC[C@H]5C4(C)C)O[C@H](CO[C@@H]4OC[C@@H](O)[C@H](O)[C@H]4O)[C@@H](O)[C@@H]3O)O[C@@H](C)[C@H](O)[C@H]2O)O[C@H](CO)[C@@H](O)[C@@H]1O,Active
10,C/C(=C\CC[C@@](C)(O)[C@@H]1[C@H](O)C[C@H]2[C@@]1(C)CC[C@H]1C(C)(C)[C@@H](O[C@@H]3O[C@H](CO[C@@H]4OC[C@@H](O)[C@H](O)[C@H]4O)[C@@H](O)[C@H](O)[C@H]3O[C@@H]3O[C@@H](C)[C@H](O)[C@@H](O)[C@H]3O)CC[C@]21C)C[C@@H]1OC(=O)O[C@H]1[C@](C)(O)CO[C@@H]1O[C@H](CO)[C@@H](O)[C@H](O)[C@H]1O,Active
11,CC(=O)N[C@H]1[C@H](O[C@H]2[C@H](O[C@H]3[C@H](O[C@H]4CC[C@]5(C)[C@H]6C[C@@H](O)[C@@H]([C@](C)(O)CC/C=C(\C)C[C@@H]7OC(=O)O[C@H]7[C@](C)(O)CO)[C@]6(C)CC[C@H]5C4(C)C)O[C@H](CO[C@@H]4OC[C@@H](O)[C@H](O)[C@H]4O)[C@@H](OC(C)=O)[C@@H]3O)O[C@@H](C)[C@H](O)[C@H]2O)O[C@H](CO)[C@@H](O)[C@@H]1O,Active
12,CC(=O)N[C@H]1[C@H](O[C@H]2[C@H](O[C@H]3[C@H](O[C@H]4CC[C@]5(C)[C@H]6C[C@@H](O)[C@@H]([C@](C)(O)CC/C=C(\C)C[C@H](O)[C@@H](O)[C@@](C)(O)CO[C@@H]7O[C@H](CO)[C@@H](O)[C@H](O)[C@H]7O)[C@]6(C)CC[C@H]5C4(C)C)O[C@H](CO[C@@H]4OC[C@@H](O)[C@H](O)[C@H]4O)[C@@H](O)[C@@H]3O)O[C@@H](C)[C@H](O)[C@H]2O)O[C@H](CO)[C@@H](O)[C@@H]1O,Active
13,CC(=O)N[C@H]1[C@H](O[C@H]2[C@H](O[C@H]3[C@H](O[C@H]4CC[C@]5(C)[C@H]6C[C@@H](O)[C@@H]([C@](C)(O)CC/C=C(\C)C[C@H](O)[C@@H](O)[C@@](C)(O)CO)[C@]6(C)CC[C@H]5C4(C)C)O[C@H](CO[C@@H]4OC[C@@H](O)[C@H](O)[C@H]4O)[C@@H](O)[C@@H]3O)O[C@@H](C)[C@H](O)[C@H]2O)O[C@H](CO)[C@@H](O)[C@@H]1O,Active
14,CC(=O)N[C@H]1[C@H](O[C@H]2[C@H](O[C@H]3[C@H](O[C@H]4CC[C@]5(C)[C@H]6C[C@@H](O)[C@@H]([C@](C)(O)CC/C=C(\C)C[C@@H]7OC(=O)O[C@H]7[C@](C)(O)CO)[C@]6(C)CC[C@H]5C4(C)C)O[C@H](CO[C@@H]4OC[C@@H](O)[C@H](O)[C@H]4O)[C@@H](O)[C@@H]3OC(C)=O)O[C@@H](C)[C@H](O)[C@H]2O)O[C@H](CO)[C@@H](O)[C@@H]1O,Active
15,CC(=O)N[C@H]1[C@H](O[C@H]2[C@H](O[C@H]3[C@H](O[C@H]4CC[C@]5(C)[C@H]6C[C@@H](O)[C@@H]([C@](C)(O)CC/C=C(\C)C[C@@H]7OC(=O)O[C@H]7[C@](C)(O)CO)[C@]6(C)CC[C@H]5C4(C)C)O[C@H](CO[C@@H]4OC[C@@H](O)[C@H](O)[C@H]4O)[C@@H](O)[C@@H]3O)O[C@@H](C)[C@H](O)[C@H]2O)O[C@H](CO)[C@@H](O)[C@@H]1O,Active
16,C/C(=C\CC[C@@](C)(O)[C@@H]1[C@H](O)C[C@H]2[C@@]1(C)CC[C@H]1C(C)(C)[C@@H](O[C@@H]3O[C@H](CO[C@@H]4OC[C@@H](O)[C@H](O)[C@H]4O)[C@@H](O)[C@H](O)[C@H]3O[C@@H]3O[C@@H](C)[C@H](O)[C@@H](O)[C@H]3O)CC[C@]21C)C[C@@H]1OC(=O)O[C@H]1[C@](C)(O)CO,Active
